Results reported in patent EP0233841A1, “Quinone derivatives and process for their preparation” (Arai, Tadashi, Prof., priority 1986, dated 1987).
Converted amounts (≈) assume the structure as drawn.

tested on: Leukämie-Zellinie L1210; experiment: in vitro cytotoxicity test, growth inhibition of cultured leukaemia cell line L1210; assay type: cell-based, Mäuse; details: Mus musculus, 72 h; L1210 cells, 3-day incubation, cell count, by interpolation; read-out: ID₅₀ (50 % Hemmwirkdosis)
Description: Die Saframycin-Derivate der vorliegenden Erfindungen zeigen insbesondere in vitro Zytotoxizität gegenüber Zellkulturen von Mäuse-Leukämie-Zellen L 1210 (NCI). Für die geprüften Verbindungen werden ID₅₀-Werte im Bereich von 0,1 bis 0,001 µg/ml gefunden.
Die Wirksamkeit gegen Tumoren in vitro wird mit einer kultivierten Leukämie-Zellinie L1210 (K. Kishi et al., J. Antibiot. 37, 847 (1984)) bestimmt. Die Zellen werden in Eagle's minimum essential medium (Nissui Seiyaku Co. Ltd., Tokyo) enthaltend 10 % fötales Kälberserum (Gibco Laboratories) in Suspension-Kultur gehalten. Die Zellen werden bei einer Konzentration von 3x10⁴ Zellen/ml in 24-Loch-Mikrotiterplatten (Costar) suspendiert und bei 37° in einer feuchten Atmosphäre enthaltend 5 % CO₂ in Luft 24 Stunden lang kultiviert, um exponentielles Wachstum auszulösen. Diese Kulturen werden mit einer Reihe von jeweils um den Faktor 10 verdünnten Proben Saframycin-Derivaten dieser Erfindung versetzt. Die Konzentration der Zellen wird nach 3-tägiger Inkubation durch elektrische Zählung mit einem Sysmex CC-130 Mikro-Zellzählgerät (Toa Electronics Ltd., Tokyo) bestimmt. Die Wachstumshemmung (Inhibierung I) in Prozent wird für jede Dosismenge nach der Formel I=(C3-T3)/(C3-C0)x100, worin T3 die Zellkonzentration in den Vertiefungen der Mikrotiterplatte bei einer gegebenen Verdünnung des Wirkstoffs nach 3-tägiger Inkubation, C3 die Zellkonzentration in der entsprechenden Kontroll-Inkubation und C0 die Zellkonzentration in den Vertiefungen vor der 3-tägigen Inkubation bedeuten, berechnet. ID₅₀ (50 % Hemmwirkdosis) wird durch Interpolierung bestimmt.

Question: For `CCCCN(CCCC)[C@@H](C)C(=O)NCC1C2=C(CC3C4C5=C(CC(C(C#N)N13)N4C)C(=O)C(C)=C(OC)C5=O)C(=O)C(C)=C(OC)C2=O` (stereo partly drawn) [N,N-Dibutyl-Saframycin Y₃, N,N-Di-n-butyl-Saframycin Y₃], which IC50 is on record?
Answer: Its IC50 is 0.08 µg/mL (≈ 0.118 µM).

Question: Which IC50 does the source give for `CCCN(CCC)[C@@H](C)C(=O)NCC1C2=C(CC3C4C5=C(CC(C(C#N)N13)N4C)C(=O)C(C)=C(OC)C5=O)C(=O)C(C)=C(OC)C2=O` (stereo partly drawn) [N,N-Dipropyl-Saframycin Y₃, N,N-Di-n-propyl-Saframycin Y₃] here?
Answer: The IC50 was 0.0015 µg/mL (≈ 0.00232 µM).

Question: For `CCN(CC)[C@@H](C)C(=O)NCC1C2=C(CC3C4C5=C(CC(C(C#N)N13)N4C)C(=O)C(C)=C(OC)C5=O)C(=O)C(C)=C(OC)C2=O` (stereo partly drawn) [N,N-Diäthyl-Saframycin Y₃], which IC50 is on record?
Answer: Its IC50 is 0.0035 µg/mL (≈ 0.00565 µM).

Question: How did the IC50 turn out when `COC1=C(C)C(=O)C2=C(C1=O)C1C3CC4=C(C(=O)C(OC)=C(C)C4=O)C(CNC(=O)[C@H](C)NC(C)C)N3C(C#N)C(C2)N1C` (stereo partly drawn) [N-Isopropyl-Saframycin Y₃] was run?
Answer: Its IC50 is 0.0018 µg/mL (≈ 0.00297 µM).

Question: For `COC1=C(C)C(=O)C2=C(C1=O)C1C3CC4=C(C(=O)C(OC)=C(C)C4=O)C(CNC(=O)[C@H](C)NC(=O)Nc4ccccc4)N3C(C#N)C(C2)N1C` (stereo partly drawn) [N-Phenylcarbamoyl-Saframycin Y₃], which IC50 is on record?
Answer: Its IC50 is 0.04 µg/mL (≈ 0.0586 µM).

Question: For `COC1=C(C)C(=O)C2=C(C1=O)C1C3CC4=C(C(=O)C(OC)=C(C)C4=O)C(CNC(=O)[C@H](C)NC(=S)Nc4ccccc4)N3C(C#N)C(C2)N1C` (stereo partly drawn) [N-Phenylthiocarbamoyl-Saframycin Y₃], which IC50 is on record?
Answer: Its IC50 is 0.1 µg/mL (≈ 0.143 µM).

Question: `COC1=C(C)C(=O)C2=C(C1=O)C1C3CC4=C(C(=O)C(OC)=C(C)C4=O)C(CNC(=O)[C@H](C)NC(=O)C(C)(C)C)N3C(C#N)C(C2)N1C` (stereo partly drawn) [N-Pivaloyl-Saframycin Y₃] was tested. Which IC50 did it give?
Answer: Its IC50 is 0.01 µg/mL (≈ 0.0154 µM).

Question: Which IC50 does the source give for `CCC(=O)N[C@@H](C)C(=O)NCC1C2=C(CC3C4C5=C(CC(C(C#N)N13)N4C)C(=O)C(C)=C(OC)C5=O)C(=O)C(C)=C(OC)C2=O` (stereo partly drawn) [N-Propionyl-Saframycin Y₃] here?
Answer: Its IC50 is 0.02 µg/mL (≈ 0.0323 µM).

Question: Which IC50 does the source give for `CCCCCCCCCC(=O)N[C@@H](C)C(=O)NCC1C2=C(CC3C4C5=C(CC(C(C#N)N13)N4C)C(=O)C(C)=C(OC)C5=O)C(=O)C(C)=C(OC)C2=O` (stereo partly drawn) [N-n-Decanoyl-Saframycin Y₃] here?
Answer: Its IC50 is 0.11 µg/mL (≈ 0.153 µM).

Question: For `CCCCCCCCCCCCCCCC(=O)N[C@@H](C)C(=O)NCC1C2=C(CC3C4C5=C(CC(C(C#N)N13)N4C)C(=O)C(C)=C(OC)C5=O)C(=O)C(C)=C(OC)C2=O` (stereo partly drawn) [N-n-Hexadecanoyl-Saframycin Y₃], which IC50 is on record?
Answer: The IC50 was 0.03 µg/mL (≈ 0.0374 µM).

Question: With `CCCCCC(=O)N[C@@H](C)C(=O)NCC1C2=C(CC3C4C5=C(CC(C(C#N)N13)N4C)C(=O)C(C)=C(OC)C5=O)C(=O)C(C)=C(OC)C2=O` (stereo partly drawn) [N-n-Hexanoyl-Saframycin Y₃] as the molecule, how does the IC50 read?
Answer: Its IC50 is 0.0075 µg/mL (≈ 0.0113 µM).

Question: With `CCCCCCCC(=O)N[C@@H](C)C(=O)NCC1C2=C(CC3C4C5=C(CC(C(C#N)N13)N4C)C(=O)C(C)=C(OC)C5=O)C(=O)C(C)=C(OC)C2=O` (stereo partly drawn) [N-n-Octanoyl-Saframycin Y₃] as the molecule, how does the IC50 read?
Answer: Its IC50 is 0.11 µg/mL (≈ 0.159 µM).

Question: How did the IC50 turn out when `COC1=C(C)C(=O)C2=C(C1=O)C1C3CC4=C(C(=O)C(OC)=C(C)C4=O)C(CNC(=O)[C@H](C)NC(=O)c4ccc(Br)cc4)N3C(C#N)C(C2)N1C` (stereo partly drawn) [N-p-Brombenzyol-Saframycin Y₃, N-p-Brombenzoyl-Saframycin Y₃] was run?
Answer: The IC50 was 0.01 µg/mL (≈ 0.0134 µM).

Question: Which IC50 does the source give for `COC1=C(C)C(=O)C2=C(C1=O)C1C3CC4=C(C(=O)C(OC)=C(C)C4=O)C(CNC(=O)[C@H](C)NCc4ccc([N+](=O)[O-])cc4)N3C(C#N)C(C2)N1C` (stereo partly drawn) [N-p-Nitrobenzyl-Saframycin Y₃] here?
Answer: Its IC50 is 0.0015 µg/mL (≈ 0.00215 µM).

Question: For `COC1=C(C)C(=O)C2=C(C1=O)C1C3CC4=C(C(=O)C(OC)=C(C)C4=O)C(CNC(=O)[C@H](C)NC(=O)Nc4cccc5ccccc45)N3C(C#N)C(C2)N1C` (stereo partly drawn) [N-α-Naphthylcarbamoyl-Saframycin Y₃], which IC50 is on record?
Answer: Its IC50 is 0.08 µg/mL (≈ 0.109 µM).
